Test results reported in US20140336187A1, “METHODS FOR TREATING LEISHMANIASIS” (HOWARD UNIVERSITY, priority 2011, published 2014).
Values joined by “and” are separate entries in the source; they are usually repeats but may differ in a detail not shown here. Equal entries are not always repeated. Where two headings read alike, the source gives them in different places.

Columns and labels:
serum IgG = assay: Seroprevalence of L. donovani-specific serum IgG (ELISA) in infected BALB/c mice; format: in vivo; conditions: serum 14 days post-infection
Protocol: To make L. donovani crude antigens, L. donovani promastigotes and amastigotes were counted using a hemocytometer, spun at 800×g for 10 min, and washed three times with 1× phosphate buffered saline (PBS). After the final wash, parasites were resuspended in 1×PBS at a concentration of 1×10^8 promastigotes (amastigotes)/ml and lysed by 5 freeze and thaw cycles or by sonication at maximum speed for 5 cycles of 10 seconds with cooling, and frozen at −80° C. until needed for assay (Burns et al., 1993; Zijlstra et al., 1998). Protein concentration was determined by the BIORAD assay.
5 μg/ml of antigen in 100 mM carbonate-bicarbonate buffer […], were added to the wells of a 96 well polyvinyl plate (100 μl/well) and incubated at room temperature for 1 hr or overnight at 4° C. Wells were emptied, blocking buffer was added (200 μl/well), and wells were incubated at room temperature for 1 hr. Wells were emptied and 50 or 100 μl/well of diluted samples added (5× mice serum), and incubated for 1.5-2 hrs. Plates were washed 4× and an anti-mouse-IgG was diluted 1:500, and added (100 μl/well); these plates were incubated for 30 min in the dark and secondary antibody tagged to HRP was added at a dilution of 1:500. TMB-HRP developer was added 100 μl/well for 30 min in the dark and plates were read at 630 nm on a spectrophotometer (Zijlstra et al., 1998).
The purpose of the test was to confirm positive infectivity through levels of serum IgG in infected BALB/c mice. A high serum IgG level is predictive of an infection with visceral leishmaniasis. The results are expressed as percent increase or percent decrease in IgG levels. Four compounds with three different concentrations each were used for the tests.
Serum levels of IgG in infected but untreated mice increased by 20.36% compared to that of uninfected mice. […] Specific-parasite IgG antibodies produced by BALB/c mice inoculated with 10^6 infective concentrations of Leishmania donovani. Mice (n=2 per group) were infected subcutaneously at the base of their tail with log phase promastigotes. […] Serum from mice was obtained fourteen days post-infection and tested individually by ELISA to determine the specific levels of L. donovani IgG. Bars indicate the mean±S.E. (Standard Error) from two mice.

L. donovani = assay: In vivo visceral leishmaniasis BALB/c mouse model: liver and spleen parasite burden (LDUs); design: species or system BALB/c mice; conditions: for LDUs (Liver): subcutaneous, 4 days from day 7; for LDUs (Liver) / LDUs (Spleen): 14 days post infection, n=2; for Parasite Suppression (%)--Liver (reduction in parasite burden) / Parasite Suppression (%)--Spleen (reduction in parasite burden) / increase in parasite burden (spleen): compared to untreated controls
Protocol: Balb/c mice 10-11 weeks old were infected with L. donovani inoculated subcutaneously (SC) at the base of the tail (maximum 0.2 ml) with 1×10^6 freshly harvested promastigotes. These represented a VL model which has been described previously (Yardley and Croft, 1999). After infection, mice were marked for individual identification and randomly allocated into groups of two. Seven days after infection, a mouse was sacrificed, and parasitic burden assessed based on microscopic enumeration of amastigotes (Leishman donovan bodies) against host cell nuclei on liver and spleen impression smears (Stauber et al., 1958). Blood was collected through cardiac puncture for use in all serum based assays.
Dosing began on the seventh day post-infection for 4 continuous days. […] Dosing was administered subcutaneously at the base of the tail.
It includes the different groups of mice and the concentrations of compounds used for the treatment of infections. A Representation of infections and treatments of BALB/c Mice is in Table 2. All mice were infected with 10^6 log phase promastigotes in PBS. In each group with different concentrations, there were two mice (n=2). […] The positive controls that were infected but were not treated with any drug except PBS, and the negative controls that were not infected with the parasites, but injected with only PBS.
The efficacy of compounds was assessed by microscopically determining the reduction in amastigotes burden Leishman donovan bodies (LDBs) within the liver and spleen. Impression smears were taken 14 days post infection (7 days after the start of treatment). Mice liver and spleen imprints were made by touching a freshly cut surface of the mice liver and spleen many times with a Poly-L-Lysine coated slide. The slides were air dried, fixed in “Diff Quick” fixative for 30 seconds, drained, stained with “Quick Diff” solution II for 30 seconds, drained, and then finally counterstaining with “Diff Quick” solution I for 30 seconds and then drained. Slides were rinsed in tap water to remove excess stain and rapidly dehydrated in absolute alcohol. Slides were examined by light microscopy, using ×1000 oil immersion. LDBs were determined by dividing the number of LDBs/number of cells nuclei x weight of organ in milligrams. This gave the number of “Leishman donovan units” (LDUs).
The purpose of the test was to evaluate splenic and liver parasite burden after treatment with selected compounds. This was done by making imprints and calculating the number of Leishman Donovan Units (LDUs) in cells. LDUs are calculated by counting the number of parasites per cell nuclei (number of amastigotes in cells÷number of cells) multiplied by the weight of the organ in milligrams. […] Effectiveness of compounds in the treatment of VL is expressed as LDU numbers and as percent increases or percent decrease in LDUs. Percent increase in LDU means that the number of parasites increased compared to the untreated controls and percent decrease means that the number of parasites decreased compared to the untreated controls.

[1] = tested on: L. donovani promastigotes; assay: Antileishmanial activity on L. donovani promastigotes (resazurin cell viability assay); format: cell-based, Leishmania donovani; conditions: for IC50: resazurin assay, 0.03 to 44 μM, means ± S.E. of three experiments; for SI Values Promastigotes: SI = IC50 (mouse fibroblast) ÷ IC50 (promastigotes)
Protocol: Approximately 5×10^5 promastigotes/ml of L. donovani Khartum strain were inoculated into Yeager's Liver infusion tryptose (YLIT) medium or Brain Heart Infusion (BHI) broth (Difco), supplemented with glucose (2.5 mg/ml), 50 U/ml Pen-Strep and 0.005 mM Hemin at 25-26° C. and subcultured bi-weekly, Mikus et al., Parasitol Int., 48(3):265-9 (2000) (Mikus and Steverding, 2000).
The Leishmanicidal properties of fifteen naphthoquinone compounds (FIG. 1) on L. donovani promastigotes proliferation were assessed by the resazurin cell viability assay. Promastigotes from axenic culture were harvested during the exponential phase of growth (at least 5-day old culture), incubated at a concentration of 2×10^5 cells/200 μl with and without dilutions of compounds in 96-well microtitre plates. Dilutions of compounds covering 0.03 μM to 44 μM were prepared. […] 20 μl Alamar Blue (12.5 mg resazurin dissolved in 100 ml distilled water (Sigma #R7017)) (Mikes and Steverding, 2000) were added to each well and plates were incubated for another 2 hrs. […] Decrease in fluorescence (inhibition), were expressed as percentage of the fluorescence of control cultures and were plotted against the concentrations of compounds. The IC50 values were calculated from the sigmoidal inhibition curves.

[2] = 20 mg/kg total dose, listed as Amphotericin B
[3] = Leishmania donovani, read-out: IC50 (μM) Promastigotes, L. donovani promastigotes

Structure (SMILES)	IgG Increase (%) (serum IgG; 20 mg/kg)	LDUs (Liver) (L. donovani; 20 mg/kg total dose)	LDUs (Spleen) (L. donovani; 20 mg/kg total dose)	Parasite Suppression (%)--Liver (reduction in parasite burden) (L. donovani; 20 mg/kg)	Parasite Suppression (%)--Spleen (reduction in parasite burden) (L. donovani; 20 mg/kg)	IC50 [1, 3]	SI Values Promastigotes [1]	IgG Increase (%) (serum IgG; 5 mg/kg)	IgG Increase (%) (serum IgG; 50 mg/kg)	LDUs (Liver) (L. donovani; 5 mg/kg total dose)	LDUs (Spleen) (L. donovani; 5 mg/kg total dose)	Parasite Suppression (%)--Liver (reduction in parasite burden) (L. donovani; 5 mg/kg)	Parasite Suppression (%)--Spleen (reduction in parasite burden) (L. donovani; 5 mg/kg)	LDUs (Liver) (L. donovani; 50 mg/kg total dose)	LDUs (Spleen) (L. donovani; 50 mg/kg total dose)	Parasite Suppression (%)--Liver (reduction in parasite burden) (L. donovani; 50 mg/kg)	Parasite Suppression (%)--Spleen (reduction in parasite burden) (L. donovani; 50 mg/kg)	also measured
C[C@@H]1[C@H](O)[C@@H](C)/C=C/C=C/C=C/C=C/C=C/C=C/C=C/[C@H](O[C@@H]2O[C@H](C)[C@@H](O)[C@H](N)[C@@H]2O)C[C@@H]2O[C@](O)(C[C@@H](O)C[C@@H](O)[C@H](O)CC[C@@H](O)C[C@@H](O)CC(=O)O[C@H]1C)C[C@H](O)[C@H]2C(=O)O [Am. B., Amphotericin B, reference compound]	24.74%	5681.0 ± 1868 LDUs	402.3 ± 30 LDUs	33.47%	35.74%													LDUs (Liver) (L. donovani; [2]): 5823.8 LDUs; LDUs (Spleen) (L. donovani; [2]): 402.0±30 LDUs; Parasite Suppression (%)--Spleen (reduction in parasite burden) (L. donovani; 20 mg/kg, listed as Amphotericin B): 33.0%
NC1=C(Br)C(=O)c2ccccc2C1=O [IMD8, 2-Amino-3-bromo-1,4-naphthoquinone]	28.66%	3099.9±2197 LDUs	297.8±9.5 LDUs	44.34%	52.44%	4.3 µM	3301.71±321.1 and 3301.71	20.94%	23.16%	4752.5±293 LDUs	585.3±222 LDUs	56.66% and 55.66%	6.51%	1869.0±420 LDUs	391.5±96 LDUs	81.89%		IC50 ([1]; read-out: IC50 (μM) Promastigotes, L. donovani promastigotes): 4.4 ± 0.4 µM
O=C1C(Cl)=C(N(C(=O)c2cccc(Cl)c2)C(=O)c2cccc(Cl)c2)C(=O)c2ccccc21 [IMDNQ4, 3-Chloro-N-(3-chlorobenzoyl)-N-(3-chloro-1,4-dioxo-1,4-dihydronaphthalen-2-yl)-benzamide]	6.81%	4266.0±6033 LDUs	770.0±608 LDUs	50.04%	0%	6.81 µM	24.65±12.51 and 24.65	11.34%	26.76%	5823.8±3378 LDUs	433.3±188 LDUs	31.79%	30.79%	1003.8±1420 LDUs	780.3±96 LDUs	88.24%	0%	increase in parasite burden (spleen) (L. donovani; 20 mg/kg): 18.7%; increase in parasite burden (spleen) (L. donovani; 50 mg/kg): 19.8%
CCCC(=O)N(C(=O)CCC)C1=C(Cl)C(=O)c2ccccc2C1=O [IMDNQ15]	14.12%	2598.5±89 LDUs and 2598.5 ± 889 LDUs	363.3±210 LDUs	69.57%	41.97%		61250.00±438 and 61250.00	21.79%	30.70%	2267.5±191 LDUs	315.0±129 LDUs	73.44%	49.68%	4618.0 ± 1785 LDUs	213.0±115 LDUs	45.92%	65.97%	
